In general, Ki refers to a dissociation constant, usually derived from enzyme kinetics or from competition with a known ligand. For orientation: EC50 means the concentration that produces a half-maximal response. Low values mean greater potency, high ones weaker potency. The inhibition is the drop in the measured response relative to a control, in per cent.

The results in this text go back to patent US20090081197A1 (Palatin Technologies, Inc., priority 2007, published 2009).

Experiment [1] has as its target T1, MC1-R (Mus musculus, UniProt Q01727).
T1 construct: B-16 mouse melanoma cells (containing MC1-R); endogenous in cells
As to the kind of experiment: Competitive inhibition assay using [I^125]-NDP-α-MSH, B-16 mouse melanoma cell membranes. The following applies: for Ki: read-out: Ki (nM) (NDP-α-MSH) In Normal System, MC1-R; for inhibition at 1 µM: 1 μM test compound, read-out: Inhibition at 1 μM (NDP-α-MSH) In Normal System, MC1-R. In kind it is binding. How it is done:
(§1) The ligand concentration used was 0.4 nM for MC3-R and MC5-R, 0.2 nM for MC4-R and 0.1 nM for B16-F10 (MC1-R) membranes. In certain experiments, hMC1-R was also employed.
(§2) The assay mixture was incubated for 90 minutes at room temperature, then filtered and the membranes washed three times with ice cold buffer. The filter was dried and counted in a gamma counter for remaining radioactivity bound to the membranes. […] Each assay was conducted in triplicate and the actual mean values are described, with results less than 0% reported as 0%.

Experiment [2] is described as follows: Penile erection induction in male rats. The format is in vivo. The following applies: rat, IV; for penile erection response: 0.0003 to 0.03 mg/kg. The method, then: Penile erection induction. The ability of compounds to induce penile erection (PE) in male rats was evaluated with selected compounds. Male Sprague-Dawley rats weighing 200-250 g were kept on a 12 hour on/off light cycle with food and water ad libitum. All behavioral studies were performed between 10 A.M. and 5 P.M. Groups of 4-8 rats were treated with compounds at a variety of doses via intravenous (IV) or intracerebroventricular (ICV) routes. Immediately after treatment, rats were placed into individual polystyrene cages (27 cm long, 16 cm wide, and 25 cm high) for behavioral observation. […] Controls utilized carrier without the test compound. Mean PEs in control groups were 0.17 to 0.5 PEs/rat by IV administration in various experiments and between 1-2 PEs/rat by ICV administration in various experiments, and thus only PEs with statistically relevant increases over the mean PEs in control groups are reported as inducing PEs. A PE response in IV animals greater than the mean PEs in control groups but less than 1.0 PEs/rat, particularly with less than all animals responding, was treated as equivocal, and not necessarily distinguishable from vehicle control. In selected instances, compounds with equivocal results in the IV model were tested for penile response in an ICV model, and compounds without a statistically relevant increase over the mean PEs in ICV control groups were determined to not induce PEs.

The nature of experiment [3]: IP (and IN) food intake, mice. In kind it is in vivo. The following applies: mouse, IP, 4 hours; for inhibition in vivo at 10 mg/kg / maximal decrease in food intake: 10 mg/kg. The method, then: IV and IP food intake and body weight change. Change in food intake and body weight was evaluated for selected compounds. Male Sprague-Dawley rats or male C57BL/6 mice were utilized. Animals were individually housed in conventional plexiglass hanging cages and maintained on a controlled 12 hour on/off light cycle. Water and powdered (LabDiet, 5P00 Prolab RMH 3000) or pelleted (Harlan Teklad 2018 18% Protein Rodent Diet) food was provided ad libitum. For 1 week before treatment, 24-hour food intake and body weight change was recorded to assess a baseline for the group during vehicle treatment. The rats were dosed IV with vehicle or selected compounds (0.5-3 mg/kg, and in some cases up to 10 mg/Kg) or dosed intraperitoneally (IP) with vehicle or selected compounds (0.5-10 mg/kg, and in some cases up to 50 mg/kg). Mice were dosed IP. […] The changes in body weight and food intake for the 48 hour and 72 hour periods after dosing were also measured to determined reversal of changes in body weight and food intake effects back to baseline levels.

Experiment [4] has as its target MC3-R (Homo sapiens, UniProt P41968). As to the kind of experiment: Competitive inhibition assay using [I^125]-NDP-α-MSH, hMC3-R membranes. Set-up: expressed in transfected cells. The format is binding. The following applies: for Ki: read-out: Ki (nM) (NDP-α-MSH) In Normal System, MC3-R; for inhibition at 1 µM: 1 μM test compound, read-out: Inhibition at 1 μM (NDP-α-MSH) In Normal System, MC3-R. How it is done:
as §1, §2

Experiment [5] addresses MC5-R (Homo sapiens, UniProt P33032). In words: Competitive inhibition assay using [I^125]-NDP-α-MSH, hMC5-R membranes. In kind it is binding. The arrangement: expressed in transfected cells. The following applies: for Ki: read-out: Ki (nM) (NDP-α-MSH) In Normal System, MC5-R; for inhibition at 1 µM: 1 μM test compound, read-out: Inhibition at 1 μM (NDP-α-MSH) In Normal System, MC5-R. How it is done:
as §1, §2

The target in experiment [6] is T2, MC4-R (Homo sapiens, UniProt P32245). In words: cAMP functional activity assay in HEK-293 cells, normal system. In kind it is cell-based. Set-up: expressed in transfected cells; host or cells: HEK-293. The following applies: for EC50 / intrinsic activity at MC4-R in a normal system: normal receptor density system; for intrinsic activity at MC4-R in a normal system: NDP-α-MSH = 1.0; for functional status at MC4-R in cAMP assay: normal system, 1 μM concentration where stated. The method, then: General method for EC50 determination in functional activity assay. […] Data analysis and EC50 values were determined using nonlinear regression analysis with Prism Graph-Pad software.
Functional status. The agonist/antagonist status with respect to MC1-R, MC-3R, MC4-R and MC5-R of certain compounds of the invention was determined. Antagonistic activity was determined by measuring the inhibition of α-MSH-induced or NDP-α-MSH-induced cAMP levels following exposure to graded doses of compounds as in the preceding descriptions.
Assay for agonist. Evaluation of the molecules to elicit a functional response in HEK-293 cells expressing MC4-R was accomplished by measuring the accumulation of intracellular cAMP following treatment. Confluent HEK-293 cells expressing MC4-R receptors were detached by enzyme free cell suspension buffer. […] The cells were plated in a 96 well plates at a density of 0.5×10^5 cells per well and pre-incubated for 30 minutes. Test compounds (dissolved in dimethylsulfoxide (DMSO) at a concentration range of 0.05-5000 nM) were added in a total assay volume of 200 μL and cells were incubated for 1 hour at 37° C. The concentration of DMSO was always held at 1% in the assay mixture. NDP-α-MSH was used as the reference agonist. […] Data analysis and EC50 values were determined by using nonlinear regression analysis with Prism Graph-Pad software. […] Compounds with a response ratio of less than 0.1 (10%) were evaluated for antagonistic activity.
For orientation: cAMP levels reflect the balance of adenylyl cyclase and phosphodiesterase activity.

For experiment [7], the target named is T2, MC4-R. In words: Competitive inhibition assay using [I^125]-NDP-α-MSH, hMC4-R membranes. In kind it is binding. Set-up: host or cells: TREx-293 (HEK-293 stably expressing Tet repressor). The following applies: for Ki: read-out: Ki (nM) (NDP-α-MSH) In Normal System, MC4-R; for inhibition at 1 µM: 1 μM test compound, read-out: Inhibition at 1 μM (NDP-α-MSH) In Normal System, MC4-R. How it is done: as §1, §2

Experiment [8] deals with T2, MC4-R. As to the kind of experiment: cAMP agonist stimulation, low receptor density system (0.1 ng/mL doxycycline). The following applies: 0.1 ng/mL doxycycline, low receptor density hMC4-R system; NDP-α-MSH maximal cAMP = 1.0.
In experiment [9] the target is T2, MC4-R. In words: cAMP agonist stimulation, high receptor density system (10 ng/mL doxycycline). The following applies: for Efficacy/Intrinsic Activity: 10 ng/mL doxycycline, high receptor density hMC4-R system, NDP-α-MSH maximal cAMP = 1.0.
Setting [10] is: read-out: maximal decrease in food intake.

MC5-R, sequence (P33032 whole entry): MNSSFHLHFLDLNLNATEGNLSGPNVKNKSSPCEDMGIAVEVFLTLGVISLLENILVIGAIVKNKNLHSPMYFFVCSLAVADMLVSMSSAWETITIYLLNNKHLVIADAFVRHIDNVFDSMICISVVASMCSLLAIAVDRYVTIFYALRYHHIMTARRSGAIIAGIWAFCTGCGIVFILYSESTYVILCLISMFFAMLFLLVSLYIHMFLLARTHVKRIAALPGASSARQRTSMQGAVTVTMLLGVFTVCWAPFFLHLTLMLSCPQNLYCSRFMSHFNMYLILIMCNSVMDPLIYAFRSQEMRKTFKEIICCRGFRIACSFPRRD
T1 sequence (Q01727 whole entry): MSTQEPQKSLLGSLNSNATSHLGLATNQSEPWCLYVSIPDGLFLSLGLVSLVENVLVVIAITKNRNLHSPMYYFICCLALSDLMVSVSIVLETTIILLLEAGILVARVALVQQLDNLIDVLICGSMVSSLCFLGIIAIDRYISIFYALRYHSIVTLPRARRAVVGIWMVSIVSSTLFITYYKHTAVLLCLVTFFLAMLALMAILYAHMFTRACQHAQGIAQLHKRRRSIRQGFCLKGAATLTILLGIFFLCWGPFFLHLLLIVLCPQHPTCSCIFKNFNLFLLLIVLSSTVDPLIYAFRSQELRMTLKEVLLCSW
T2 sequence (P32245 whole entry): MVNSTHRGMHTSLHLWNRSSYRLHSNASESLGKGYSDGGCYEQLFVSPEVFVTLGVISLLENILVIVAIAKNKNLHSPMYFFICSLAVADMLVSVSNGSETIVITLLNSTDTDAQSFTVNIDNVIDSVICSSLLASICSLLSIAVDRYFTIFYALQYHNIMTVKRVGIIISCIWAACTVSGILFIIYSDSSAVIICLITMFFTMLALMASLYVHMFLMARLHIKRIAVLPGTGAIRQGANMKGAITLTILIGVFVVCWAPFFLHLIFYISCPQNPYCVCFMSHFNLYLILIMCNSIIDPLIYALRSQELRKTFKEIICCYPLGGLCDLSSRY
MC3-R, sequence (P41968 whole entry): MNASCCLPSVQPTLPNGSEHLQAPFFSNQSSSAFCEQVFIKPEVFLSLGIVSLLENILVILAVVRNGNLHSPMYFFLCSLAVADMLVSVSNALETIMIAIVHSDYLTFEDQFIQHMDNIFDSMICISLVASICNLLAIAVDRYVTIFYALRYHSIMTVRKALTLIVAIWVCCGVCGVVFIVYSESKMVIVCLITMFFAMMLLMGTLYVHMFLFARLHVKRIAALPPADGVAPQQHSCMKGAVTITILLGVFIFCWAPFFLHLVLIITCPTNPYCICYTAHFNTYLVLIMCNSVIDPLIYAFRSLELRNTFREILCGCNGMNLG

On to `CC(=O)N[C@H](Cc1ccc(C)cc1C)C(=O)N1C[C@@H](C)N(C(=O)Cc2ccc3ccccc3c2)C[C@@H]1CCCNC(=N)N` [Example 30, N-{(R)-1-(2,4 dimethyl-benzyl)-2-[(2S,5R)-2-(3-guanidino-propyl)-5-methyl-4-(2-naphthalen-2-yl-acetyl)-piperazin-1-yl]-2-oxo-ethyl}-acetamide], for which the inhibitory constant (Ki) was 1880 nM in experiment [1], 232 nM in [4], 250 nM in experiment [5] and 11 nM in experiment [7]. For the same compound, the “Penile Erection IV” value in experiment [2] is recorded as “No”. Moreover, the penile erection response entry in experiment [2] is reported as “no penile activity response”. Besides, the inhibition in vivo at 3 mg/kg in experiment [3] (3 mg/kg, read-out: maximal decrease in food intake) came to 8%. Further, the EC50 in [6] turned out to be 9 nM; in experiment [9] it was 51 nM. The “intrinsic activity at MC4-R in a normal system” value in experiment [6] is given as 0.4. Also, the “functional status at MC4-R in cAMP assay” value in experiment [6] was “partial agonist (intrinsic activity between 0.1 (10%) and 0.7 (70%) is classified as a partial agonist)”. For the same compound, the entries for the “Efficacy/Intrinsic Activity” value in experiment [8] and in [9] were “None” and 0.18, respectively.

For the compound `CC(=O)N[C@H](Cc1ccc(Cl)cc1C)C(=O)N1C[C@@H](C)N(C(=O)Cc2ccc3ccccc3c2)C[C@@H]1CCCNC(=N)N` [Example 31, N-{(R)-1-(2-methyl, 4-chloro-benzyl)-2-[(2S,5R)-2-(3-guanidino-propyl)-5-methyl-4-(2-naphthalen-2-yl-acetyl)-piperazin-1-yl]-2-oxo-ethyl}-acetamide], the Ki in experiment [1] is 1390 nM; in experiment [4], 136 nM; in [5], 234 nM; in [7] it was 5 nM. Besides, the “Penile Erection IV” value in [2] is “No”. The penile erection response entry in experiment [2] is reported as “no penile activity response”. Moreover, in experiment [3] (setting [10]), the inhibition in vivo at 10 mg/kg was found to be 7%. The EC50 in [6] amounted to 3 nM; in experiment [9], 39 nM. Besides, the “intrinsic activity at MC4-R in a normal system” value in experiment [6] is 0.6. Further, the “functional status at MC4-R in cAMP assay” value in experiment [6] was “partial agonist (intrinsic activity between 0.1 (10%) and 0.7 (70%) is classified as a partial agonist)”. The “Efficacy/Intrinsic Activity” value was “None” in experiment [8] and 0.27 in [9].

For the compound `CC(=O)N[C@H](Cc1ccc2ccccc2c1)C(=O)N1C[C@@H](CC(C)C)N(CCc2ccc3ccccc3c2)C[C@@H]1CCCNC(=N)N` [Example 12, N-{2-[2(S)-(3-Guanidino-propyl)-5(R)-isobutyl-4-(2-naphthalen-2-yl-ethyl)-piperazin-1-yl]-1(R)-naphthalen-2-ylmethyl-2-oxo-ethyl}-acetamide], the inhibition at 1 µM in experiment [1] amounted to 0%; in experiment [4], 40%; in [5], 64%; in experiment [7], 100%. Moreover, the Ki in [1] came out at 4620 nM. Further, the “maximal decrease in food intake” value in experiment [3] is reported as 46%. The “Efficacy/Intrinsic Activity” value in experiment [8] and in [9] was “None” in each case.

On to `CC(=O)N[C@H](Cc1ccc2ccccc2c1)C(=O)N1C[C@@H](C)N(C(=O)Cc2ccc3ccccc3c2)C[C@@H]1CCCNC(=N)N` [Example 32, N-{(R)-2-[(2S,5R)-2-(3-guanidino-propyl)-5-methyl-4-(2-naphthalen-2-yl-acetyl)-piperazin-1-yl]-1-naphthalen-2-ylmethyl-2-oxo-ethyl}-acetamide], for which the inhibition at 1 µM amounted to 51% in experiment [1], 38% in experiment [4], 44% in experiment [5] and 97% in experiment [7]. Moreover, the inhibition constant (Ki) was determined as 406 nM in experiment [1], 634 nM in experiment [4], 826 nM in [5] and 7 nM in [7]. Further, the inhibition in vivo at 10 mg/kg in experiment [3] (setting [10]) is 34%. In addition, in [6], the midpoint of the response, the EC50, lay at 7 nM.

With `C[C@@H]1CN(C(=O)[C@H](N)Cc2ccc3ccccc3c2)[C@@H](CCCNC(=N)N)CN1C(=O)Cc1ccc2ccccc2c1` [Example 33, N-{3-[(2S)-1-[(R)-2-Amino-3-(naphthlene-2-yl)-propionyl]-5(R)-methyl-4-(2-naphthalen-2-yl-acetyl)-piperazin-2-yl]-propyl}-guanidine], the inhibition at 1 µM in experiment [1] stood at 43%; in experiment [4], 40%; in experiment [5] it was 50%; in experiment [7], 89%. For the same compound, the Ki was determined as 227 nM in [1], 596 nM in experiment [4], 548 nM in [5] and 19 nM in experiment [7]. Further, in experiment [3] (setting [10]), the inhibition in vivo at 10 mg/kg is 25%. For the same compound, the concentration giving a half-maximal response (EC50) is 42 nM in [6] and 50 nM in experiment [9].

As to `CC(=O)N[C@H](Cc1ccc(C)cc1C)C(=O)N1C[C@@H](C)N(CCc2ccc3ccccc3c2)C[C@@H]1CCCNC(=N)N` [Example 25, N-{1(R)-(2,4-Dimethyl-benzyl)-2-[2(S)-(3-guanidino-propyl)-5(R)-methyl-4-(2-naphthalen-2-yl-ethyl)-piperazin-1-yl]-2-oxo-ethyl}-acetamide], the inhibition at 1 µM in experiment [1] came to 28%; in experiment [4], 75%; in experiment [5] it was 89%; in [7], 100%. Also, in experiment [1], the Ki came out at 568 nM. The “maximal decrease in food intake” value in [3] worked out at 34%. In addition, the “Efficacy/Intrinsic Activity” value in [8] and in [9] was “None” throughout.
